# Reference: article PMC10018501 (ACS Omega, 2023)
# Where “and” joins values, the source holds several entries; their conditions need not be identical. Identical values can stand only once. Like-named read-outs stand apart in the source and are kept apart here.
# Legend:
# [1] = biological target: hBACE-1 (Homo sapiens, UniProt P56817); experiment: biochemical
# [2] = biological target: hBChE (Equus caballus, UniProt P81908); experiment: In vitro hBChE inhibition assay; assay type: biochemical, human
# [3] = biological target: hAChE (Homo sapiens, UniProt P22303); experiment: In vitro hAChE inhibition assay; assay type: biochemical; settings: for selectivity index hBChE/hAChE: IC50 of hBChE/IC50 of hAChE
# [4] = biological target: PAS-AChE (hAChE-PAS region) (Homo sapiens, UniProt P22303); experiment: Propidium iodide displacement assay; assay type: binding
# [5] = in vitro; settings: PAMPA, pH 7.4
# [6] = n = 3, mean ± SEM
# [7] = system: nondifferentiated SH-SY5Y cells; experiment: Neuroprotective estimation; assay type: cell-based; settings: Homo sapiens, 24 h, read-out: cell viability
# [8] = biological target: Aβ1–42 (Homo sapiens, UniProt P05067); experiment: Self-induced Aβ aggregation inhibition thioflavin T assay; assay type: biochemical; settings: compound 5, 10 and 20 μM; Aβ 10 μM
# [9] = system: differentiated SH-SY5Y cells; experiment: Neurotoxicity estimation; assay type: cell-based; settings: 10, 20, 40 and 80 μM, 24 h
# [10] = biological target: Aβ1–42 with hAChE (Homo sapiens, UniProt P22303); experiment: hAChE-induced Aβ aggregation inhibition thioflavin T assay; assay type: biochemical; settings: compound 5, 10 and 20 μM; Aβ 10 μM
# [11] = system: scopolamine-induced rat model; experiment: Scopolamine-induced Y-maze test; assay type: in vivo, Wistar rats; settings: SD-6 2.5, 5, 10 mg/kg p.o.; donepezil 5 mg/kg p.o.; 7 days; vs scopolamine group
# [12] = system: ICV Aβ1–42-induced rat model; experiment: Aβ-induced Morris water maze test; settings: SD-6 10 mg/kg, donepezil 5 mg/kg, orally 9 days; vs Aβ group
# [13] = hAChE inhibitory activity (good/moderate/poor), class in words
# hAChE, sequence (P22303 32-617 isoform P22303-2 limits assumed): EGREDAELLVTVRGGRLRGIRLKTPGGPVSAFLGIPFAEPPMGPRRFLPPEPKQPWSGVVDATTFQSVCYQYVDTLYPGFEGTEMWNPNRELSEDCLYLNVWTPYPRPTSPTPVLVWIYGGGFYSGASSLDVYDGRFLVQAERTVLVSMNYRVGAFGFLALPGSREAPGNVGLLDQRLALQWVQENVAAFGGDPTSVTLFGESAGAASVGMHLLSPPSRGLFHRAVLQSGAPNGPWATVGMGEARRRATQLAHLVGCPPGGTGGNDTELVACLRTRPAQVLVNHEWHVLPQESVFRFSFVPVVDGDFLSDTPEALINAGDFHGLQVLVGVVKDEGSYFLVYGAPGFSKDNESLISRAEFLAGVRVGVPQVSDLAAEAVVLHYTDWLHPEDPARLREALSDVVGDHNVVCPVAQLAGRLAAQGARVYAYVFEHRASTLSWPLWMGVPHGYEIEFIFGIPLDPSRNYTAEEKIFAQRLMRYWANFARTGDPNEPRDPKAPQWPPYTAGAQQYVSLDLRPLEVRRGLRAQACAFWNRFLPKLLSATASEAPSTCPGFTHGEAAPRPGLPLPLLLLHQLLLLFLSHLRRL
# PAS-AChE (hAChE-PAS region), sequence (P22303 32-617 isoform P22303-2 limits assumed): as above
# hBChE, sequence (P81908 whole entry): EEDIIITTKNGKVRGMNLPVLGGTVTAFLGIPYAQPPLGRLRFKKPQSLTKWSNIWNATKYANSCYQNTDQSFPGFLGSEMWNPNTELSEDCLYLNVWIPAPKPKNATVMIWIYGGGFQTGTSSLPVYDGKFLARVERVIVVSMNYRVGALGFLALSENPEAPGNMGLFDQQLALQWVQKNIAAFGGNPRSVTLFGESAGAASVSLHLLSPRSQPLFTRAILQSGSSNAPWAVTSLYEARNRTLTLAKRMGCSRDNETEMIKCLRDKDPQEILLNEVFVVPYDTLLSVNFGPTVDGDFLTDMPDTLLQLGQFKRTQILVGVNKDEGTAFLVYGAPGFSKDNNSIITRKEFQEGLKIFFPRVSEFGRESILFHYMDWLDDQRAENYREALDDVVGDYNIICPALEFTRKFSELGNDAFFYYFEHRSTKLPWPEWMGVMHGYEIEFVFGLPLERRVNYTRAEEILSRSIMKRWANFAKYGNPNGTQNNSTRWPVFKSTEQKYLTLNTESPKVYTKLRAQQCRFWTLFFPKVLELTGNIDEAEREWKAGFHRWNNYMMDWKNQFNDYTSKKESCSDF
# hBACE-1, sequence (P56817 46-501): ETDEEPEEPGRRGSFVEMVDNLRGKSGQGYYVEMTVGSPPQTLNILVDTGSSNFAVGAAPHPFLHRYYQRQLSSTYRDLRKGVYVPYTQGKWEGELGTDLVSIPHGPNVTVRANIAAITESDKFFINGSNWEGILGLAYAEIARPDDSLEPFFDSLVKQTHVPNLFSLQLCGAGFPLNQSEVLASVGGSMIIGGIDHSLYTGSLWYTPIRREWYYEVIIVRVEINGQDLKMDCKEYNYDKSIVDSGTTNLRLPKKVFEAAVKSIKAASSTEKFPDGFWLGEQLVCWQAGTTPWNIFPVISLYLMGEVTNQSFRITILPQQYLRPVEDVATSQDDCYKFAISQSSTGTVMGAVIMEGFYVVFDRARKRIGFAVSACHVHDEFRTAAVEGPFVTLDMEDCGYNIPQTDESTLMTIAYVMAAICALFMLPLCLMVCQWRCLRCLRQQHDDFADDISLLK
# Aβ1–42, sequence (P05067 672-713): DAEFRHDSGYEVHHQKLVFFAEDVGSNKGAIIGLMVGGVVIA
# Aβ1–42 with hAChE, sequence (P22303 32-588 isoform P22303-2): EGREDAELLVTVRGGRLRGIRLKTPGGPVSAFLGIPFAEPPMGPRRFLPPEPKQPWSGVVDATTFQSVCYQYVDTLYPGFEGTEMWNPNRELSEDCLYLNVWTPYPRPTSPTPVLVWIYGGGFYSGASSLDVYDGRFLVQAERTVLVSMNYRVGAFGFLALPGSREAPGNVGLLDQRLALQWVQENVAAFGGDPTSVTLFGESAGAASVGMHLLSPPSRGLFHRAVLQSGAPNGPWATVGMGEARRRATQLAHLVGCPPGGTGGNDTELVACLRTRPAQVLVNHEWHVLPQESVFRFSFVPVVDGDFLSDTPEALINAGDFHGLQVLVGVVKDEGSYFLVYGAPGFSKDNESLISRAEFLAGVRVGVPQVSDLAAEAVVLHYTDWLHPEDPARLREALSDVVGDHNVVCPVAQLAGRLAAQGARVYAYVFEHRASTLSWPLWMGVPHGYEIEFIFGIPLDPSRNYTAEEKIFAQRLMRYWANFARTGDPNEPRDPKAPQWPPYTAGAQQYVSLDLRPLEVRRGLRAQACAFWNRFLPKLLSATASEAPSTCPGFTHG
Compound,IC50 [1] [nM],"IC50 ([1]; IC50 ± SEM hBACE-1, n = 3) [nM]",IC50 [2] [nM],"IC50 ([3]; IC50 ± SEM hAChE, n = 3) [nM]","IC50 [3, 13] [nM]",other results
"O=[N+]([O-])c1ccc(-c2nn(CN3CCN(Cc4ccccc4)CC3)c(=S)o2)c([N+](=O)[O-])c1 [SD-15, 3-((4-Benzylpiperazin-1-yl)methyl)-5-(2,4-dinitrophenyl)-1,3,4-oxadiazole-2(3H)-thione]",1000 to 2500,1450 ± 22,> 10000,1420 ± 23,–,hAChE inhibitory activity (good/moderate/poor) ([3]; class in words): moderate to poor
"COc1ccc(-c2nn(CN3CCN(Cc4ccccc4)CC3)c(=S)o2)cc1 [SD-13, 3-((4-Benzylpiperazin-1-yl)methyl)-5-(4-methoxyphenyl)-1,3,4-oxadiazole-2(3H)-thione]",1000 to 2500,1358 ± 12,> 10000,1530 ± 28,1000 to 2000,–
"FC(F)(F)Oc1ccc(-c2nn(CN3CCN(Cc4ccccc4)CC3)c(=S)o2)cc1 [SD-3, 3-((4-Benzylpiperazin-1-yl)methyl)-5-(4-(trifluoromethoxy)phenyl)-1,3,4-oxadiazole-2(3H)-thione]",1000 to 2500,1110 ± 16,> 10000,1335 ± 12,1000 to 2000,–
"Oc1ccc(-c2nn(CN3CCN(Cc4ccccc4)CC3)c(=S)o2)c(O)c1 [SD-17, 3-((4-Benzylpiperazin-1-yl)methyl)-5-(2,4-dihydroxyphenyl)-1,3,4-oxadiazole-2(3H)-thione]",1000 to 2500,2150 ± 34,> 10000,1792 ± 15,–,hAChE inhibitory activity (good/moderate/poor) ([3]; class in words): moderate to poor
"S=c1oc(-c2cccc(Cl)c2)nn1CN1CCN(Cc2ccccc2)CC1 [SD-7, 3-((4-Benzylpiperazin-1-yl)methyl)-5-(3-chlorophenyl)-1,3,4-oxadiazole-2(3H)-thione]",–,885 ± 13,> 10000,1420 ± 22,< 1000,–
"O=[N+]([O-])c1ccc(-c2nn(CN3CCN(Cc4ccccc4)CC3)c(=S)o2)cc1 [SD-2, 3-((4-Benzylpiperazin-1-yl)methyl)-5-(4-nitrophenyl)-1,3,4-oxadiazole-2(3H)-thione]",–,811 ± 23,> 10000,1107 ± 8,1000 to 2000,–
"FC(F)(F)c1ccc(-c2nn(CN3CCN(Cc4ccccc4)CC3)c(=S)o2)cc1 [SD-8, 3-((4-Benzylpiperazin-1-yl)methyl)-5-(4-(trifluoromethyl)phenyl)-1,3,4-oxadiazole-2(3H)-thione]",–,701 ± 19,2420 ± 41,1320 ± 18,1000 to 2000,"PAS-AChE propidium iodide displacement (%) ([4]; [I] = 10 μM): 21.446 ± 1.147%; PAS-AChE propidium iodide displacement (%) ([4]; [I] = 10 μM, listed as SD-08): 21.4%; PAS-AChE propidium iodide displacement (%) ([4]; [I] = 50 μM): 41.709 ± 1.271%; PAS-AChE propidium iodide displacement (%) ([4]; [I] = 50 μM, listed as SD-08): 41.7%; Papp [5]: 5.019 ± 0.033 ×10⁻⁶ cm/s; Pe(exp) PAMPA–BBB [6]: 5.019 10^–6 cm/s; selectivity index hBChE/hAChE [3]: 1.835"
"Oc1ccc(-c2nn(CN3CCN(Cc4ccccc4)CC3)c(=S)o2)cc1 [SD-10, 3-((4-Benzylpiperazin-1-yl)methyl)-5-(4-hydroxyphenyl)-1,3,4-oxadiazole-2(3H)-thione]",–,> 5000,> 10000,1220 ± 13,1000 to 2000,–
"S=c1oc(-c2ccccc2Br)nn1CN1CCN(Cc2ccccc2)CC1 [SD-16, 3-((4-Benzylpiperazin-1-yl)methyl)-5-(2-bromophenyl)-1,3,4-oxadiazole-2(3H)-thione]",1000 to 2500,1800 ± 29,> 10000,2410 ± 27,–,hAChE inhibitory activity (good/moderate/poor) ([3]; class in words): moderate to poor
"O=[N+]([O-])c1ccccc1-c1nn(CN2CCN(Cc3ccccc3)CC2)c(=S)o1 [SD-5, 3-((4-Benzylpiperazin-1-yl)methyl)-5-(2-nitrophenyl)-1,3,4-oxadiazole-2(3H)-thione]",1000 to 2500,1170 ± 21,> 10000,1890 ± 31,–,hAChE inhibitory activity (good/moderate/poor) ([3]; class in words): moderate to poor
"S=c1oc(-c2ccc(Cl)cc2)nn1CN1CCN(Cc2ccccc2)CC1 [SD-1, 3-((4-Benzylpiperazin-1-yl)methyl)-5-(4-chlorophenyl)-1,3,4-oxadiazole-2(3H)-thione]",–,943 ± 18,> 10000,1260 ± 19,1000 to 2000,–
"Nc1ccc(-c2nn(CN3CCN(Cc4ccccc4)CC3)c(=S)o2)cc1 [SD-11, 5-(4-Aminophenyl)-3-((4-benzylpiperazin-1-yl)methyl)-1,3,4-oxadiazole-2(3H)-thione]",–,> 5000,> 10000,1220 ± 27,1000 to 2000,–
"N#Cc1cccc(-c2nn(CN3CCN(Cc4ccccc4)CC3)c(=S)o2)c1 [SD-4, 3-(4-((4-Benzylpiperazin-1-yl)methyl)-5-thioxo-4,5-dihydro-1,3,4-oxadiazol-2-yl)benzonitrile]",–,651 ± 14,1650 ± 19,1077 ± 9,< 1000,"PAS-AChE propidium iodide displacement (%) ([4]; [I] = 10 μM): 24.6% and 24.661 ± 1.421%; PAS-AChE propidium iodide displacement (%) ([4]; [I] = 50 μM): 55.1% and 55.157 ± 1.247%; Papp [5]: 6.127 ± 0.019 ×10⁻⁶ cm/s; viability at 5 µM [7]: 59.1%; viability at 10 µM [7]: 71.6%; viability at 20 µM [7]: 82.5%; Pe(exp) PAMPA–BBB [6]: 6.127 10^–6 cm/s; % Aβ aggregation inhibition, self-induced [8]: 20–61%; neurotoxicity (MTT, cell population and morphology) [9]: non-neurotoxic; % Aβ aggregation inhibition, hAChE-induced [10]: 38–79%; selectivity index hBChE/hAChE [3]: 1.534"
"COc1cccc(-c2nn(CN3CCN(Cc4ccccc4)CC3)c(=S)o2)c1 [SD-12, 3-((4-Benzylpiperazin-1-yl)methyl)-5-(3-methoxyphenyl)-1,3,4-oxadiazole-2(3H)-thione]",1000 to 2500,1210 ± 16,> 10000,1940 ± 24,1000 to 2000,–
"S=c1oc(-c2ccc(Cl)cc2Cl)nn1CN1CCN(Cc2ccccc2)CC1 [SD-9, 3-((4-Benzylpiperazin-1-yl)methyl)-5-(2,4-dichlorophenyl)-1,3,4-oxadiazole-2(3H)-thione]",1000 to 2500,1410 ± 31,> 10000,2110 ± 37,–,hAChE inhibitory activity (good/moderate/poor) ([3]; class in words): moderate to poor
"COc1cc2c(cc1OC)C(=O)C(CC1CCN(Cc3ccccc3)CC1)C2 (stereo not shown) [donepezil, reference compound]",–,–,–,–,–,"% spontaneous alterations [11]: significant (^b,c,dp < 0.001) increase; % Aβ aggregation inhibition, self-induced [8]: 21–37%; escape latency time (ELT) [12]: maximum decline in ELT; time spent in the platform zone [12]: significantly (^bp < 0.001) higher; total number of entries to the platform zone [12]: significantly (^bp < 0.001) different from the Aβ-treated animal group"
"O=[N+]([O-])c1cc(-c2nn(CN3CCN(Cc4ccccc4)CC3)c(=S)o2)ccc1Cl [SD-14, 3-((4-Benzylpiperazin-1-yl)methyl)-5-(4-chloro-3-nitrophenyl)-1,3,4-oxadiazole-2(3H)-thione]",–,806 ± 11,1940 ± 33,1140 ± 18,1000 to 2000,PAS-AChE propidium iodide displacement (%) ([4]; [I] = 10 μM): 19.7% and 19.773 ± 1.216%; PAS-AChE propidium iodide displacement (%) ([4]; [I] = 50 μM): 36.8% and 36.841 ± 1.069%; Papp [5]: 4.858 ± 0.016 ×10⁻⁶ cm/s; Pe(exp) PAMPA–BBB [6]: 4.848 10^–6 cm/s; selectivity index hBChE/hAChE [3]: 1.710
